The source of these data is US7018989B2, “Chemical compounds” (University College Cardiff Consultants, LTD, priority 1995, dated 2006).

Where two headings read alike, the source gives them in different places.

One series can be described thus: Toxicity to MT-4 cells. The class given is cell-based, human. To be noted: human, mock-infected MT-4 cells; Table 6; mean of two or more repeat experiments; read-out: CC50 MT4: CC50 for toxicity to MT-4 cells.
The test system of series [1] is HIV-2. Kind of series: Inhibition of HIV-2 in CEM/TK- cells. The class given is cell-based. To be noted: Human immunodeficiency virus 2, CEM-TK(-). The method in brief:
(§1)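 Trypan blue staining of MT-4 cultures on day 5 gave viable cell numbers; CEM cultures were checked microscopically for giant cells on day 4. Both cell types were infected at 100 CCID50/mL (5×10^5 cells/mL) and incubated with compound dilutions.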

The test system of the next series is hog liver esterase. As to the kind of experiment: Incubation with hog liver esterase. It counts as in vitro ADME. To be noted: 1 mM, 37° C., Tris-HCl buffer containing 5 mM MgCl2. The procedure:
This metabolites co-eluted with the predominant metabolite (X) that was found in the cell extracts after incubation of the intact cells with [^3H] 324. metabolite X corresponds to a compound of formula (10), wherein Y is oxygen, X^1 is NH, X^2 is oxygen, B is thymine, R^1 is Me, R^2 is hydrogen.

The target in a further series is HIV RT (Human immunodeficiency virus type 1 group M subtype B, UniProt P03366). Kind of series: Inhibition of HIV reverse transcriptase. It counts as biochemical. The conditions noted are these: Table 4.
For the next series, the system named is III-B strain of HIV-1. Kind of series: microbe, parasite or virus in culture. It counts as cell-based. The method in brief:
(§2)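 C8166 cells (4×10^4/well) in RPMI 1640 with 10% calf serum, mixed with 5-fold compound dilutions, then given 10 CCID50 HIV-1 III-B and kept 5–7 days. Viability of infected and uninfected cells measured by MTT-formazan; duplicates on at least two occasions, averaged.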

Series [2] in a line: Toxicity in C8166 cells (MTT-Formazen). The class given is cell-based. The conditions noted are these: human, Table 3. A digest of the protocol:
as §2

In series [3] the test system is HIV-1. Kind of series: Inhibition of HIV-1 in MT4 cells. The class given is cell-based. To be noted: Human immunodeficiency virus 1, MT4; Table 6; mean of two or more repeat experiments; read-out: HIV1 MT4: EC50 for inhibition of HIV-1 in MT4 cells. A digest of the protocol: as §1
The nature of the next series: Toxicity to CEM cells. It counts as cell-based, human. To be noted: human, mock-infected CEM cells; Table 6; mean of two or more repeat experiments.
In series [4] the test system is HIV-2. Kind of series: Inhibition of HIV-2 in CEM cells (giant cell formation). It counts as cell-based. To be noted: Human immunodeficiency virus 2, CCRF-CEM, read-out: HIV2 CEM: EC50 for inhibition of HIV-2 in CEM cells. A digest of the protocol:
as §1

The subject of series [5] is Moloney Sarcoma Virus [MSV]. Kind of series: MSV-induced tumour formation and survival in NMRI mice. It counts as in vivo. The conditions noted are these: MSV infected mice. How it is done:
Drug doses are 50[low ] or 200 [high] mg/kg/day given i.p. for 4 days starting 1 hour before MSV inoculation.
In Vivo Testing Inhibitory Effects of Test Compounds on the Initiation of MSV-Induced Tumour Formation in NRMI Mice and on the Survival of MSV Innoculated NMRI Mice.
Mice infected with Moloney Sarcoma Virus [MSV] were treated daily with either placebo, or d4T [at one of two doses] or with compound 324 at one of the same [equi-molar] doses.
Two- to three-day old NMRI mice (weighing—2 gram) were innoculated subcutaneously (s.c.) in the left hind leg with 50 μl MSV (100 foci forming units, as measured by in vitro determination of the virus-induced transformation of murine C3H embryo fibroblast cells). At 4 to 5 days post-infection, tumours develop and rapidly increase in volume upon further aging of the mice. Within 10 to 12 days post-infection, mice (then weighing—5 to 6 gram) die from the viral infection. Drug treatment started 1 hour prior to infection of the virus, and further compound administration was given daily i.p. for an additional 3 days. The mean day of tumour initiation (±standard deviation) and the mean day of survival of the mice (±standard deviation) was calculated and statistical significance of the average delay of tumour formation and the mean day of survival in the treated groups versus the untreated (control) group was assessed by two-tailed student's t-test.

In series [6] the test system is HIV-1. As to the kind of experiment: microbe, parasite or virus in culture. To be noted: Human immunodeficiency virus 1, CCRF-CEM. A digest of the protocol:
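Giant cell formation, recorded under the microscope on day 4, served as the end point for CEM cells, while MT-4 viability was determined by trypan blue exclusion on day 5. Cell suspensions (5×10^5/mL) received virus at 100 CCID50/mL before compound addition.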

The test system of series [7] is HIV-2. Kind of series: Inhibition of HIV-2 in MT4 cells. It counts as cell-based. To be noted: Human immunodeficiency virus 2, MT4, read-out: HIV2 MT4: EC50 for inhibition of HIV-2 in MT4 cells. A digest of the protocol: as §1

Regarding `COC(=O)C(C)NP(=O)(OCC1C=CC(n2cc(C)c(=O)[nH]c2=O)O1)Oc1ccccc1` (centres unmarked) [Compound 324, 2′,3′-dideoxy-2′,3′-didehydrothymidine 5′-(phenyl N-methoxyalaninyl) phosphoramidate], in “Toxicity to MT-4 cells”, the CC50 at 5 days was over 100000 nM. The EC50 with HIV-2 [1] (read-out: EC50 CEM TK− HIV2) was 80 nM; in the series with HIV-2 [1] (read-out: HIV2 CEM-TK-: EC50 for inhibition of HIV-2 in CEM/TK^− cells) it was 75 nM; on HIV RT it was 50000 nM; in the series with III-B strain of HIV-1 (Human immunodeficiency virus 1, C8166, Table 4, read-out: EC50 8166 HIV1) it was 3.2 nM; in the series with III-B strain of HIV-1 (Human immunodeficiency virus 1, HIV1 in C8166 cells, Table 3, read-out: Activity EC50) it was 3.2 nM; in the series on HIV-1 [3] it was 81 nM. For the same compound, the EC50 amounted to 75 nM in the series on HIV-2 [4], 180 nM in the series with HIV-1 [6] (read-out: EC50 CEM HIV1), 75 nM with HIV-1 [6] (read-out: HIV1 CEM: EC50 for inhibition of HIV-1 in CEM cells) and 53 nM with HIV-2 [7]. For the same compound, the “metabolite formation with hog liver esterase” value in the series on hog liver esterase is “time-dependent formation of a metabolite was observed”. In addition, the “Selectivity CC50/EC50 × 10^3” value in the series on III-B strain of HIV-1 (HIV1 in C8166 cells, Table 3) is on record as 46.9 × 10^3. The CC50 turned out to be 150000 nM in series [2] and 100000 nM in “Toxicity to CEM cells”. For the same compound, the “effect on tumour appearance” value in series [5] (high-dose (200 mg/kg/day i.p. for 4 days)) is recorded as “significant effect”. For the same compound, the “effect on tumour appearance (first disease parameter)” value in series [5] (low dose (50 mg/kg/day i.p. for 4 days)) is “an effect”.

By CC50 is commonly meant the concentration that lowers cell viability or growth by half.
